Reference: US10822339B2, “Pyrrolopyrimidine five-membered azacyclic derivative and application thereof” (HANGZHOU HUADONG MEDICINE GROUP BIOPHARMACEUTICAL CO. LTD, priority 2016, dated 2020)
Read-outs that look alike come from different tables or passages of the source.

What was measured:
[1] = Pharmacokinetic experiments in Beagles; format: in vivo; settings: single administration; for half-life: read-out: Terminal t1/2 (converted)
Experimental: Experimental animals: Beagles, male and female; body weight: 7-9 kg;
Preparation of test samples: the compound (Ia) of the present invention was formulated into 2.5 mg/mL (for intravenous administration) and 2.0 mg/mL (for oral administration) for use. Routes of administration: oral/intravenous injection. Dosing capacity and frequency: 2 mL/kg (intravenous injection) or 5 mL/kg (oral), single administration.
Sample collection: blood was collected at the following time points: post-dose at 5 min, 15 min, 30 min, 1 hr, 2 hrs, 4 hrs, 8 hrs, and 24 hrs.
Sample analysis: The collected samples were tested using the LC-MS/MS method. The instrument model is API4000.
Pharmacokinetic data analysis: WinNolin was used to fit and calculate the obtained plasma concentration data according to the non-compartmental model method.

[2] = Toxic side effects experiment, 14 days repeated dosing; settings: for toxic side effects: rat, in vivo; for organ tissues, blood biochemical parameters versus vehicle control group: once daily 30 mg/kg/day for 14 days
Experimental: The toxic side effects of the compounds of the present invention (Ia and Ib) were studied. The rats were administered once daily at 30 mg/kg/day for 14 days consecutively.

hERG = biological target: T1, hERG (Homo sapiens, UniProt Q12809); assay: Whole cell hERG potassium channel current blocking, automatic patch clamp; format: cell-based; settings: HEK293 cells expressing hERG stably
T1 construct: expressed in transfected cells; host or cells: HEK293
Excerpt: Potassium channel current blocking percentage of whole cell hERG by the compounds of the present invention is studied using HEK293 cells expressing hERG stably and automatic patch clamp system detection method, the dose-effect relationship curve was obtained. The positive drug is Cisapride.

[3] = system: adjuvant-induced arthritis; assay: Rat adjuvant-induced arthritis efficacy model; format: in vivo; settings: oral; for animal clinical scores / paw volumes: dose groups of 10 mg/kg and 15 mg/kg; for animal body weight increase versus vehicle group: treatment groups, 14 days dosing
JAK3 = biological target: T2, JAK3 (Homo sapiens, UniProt P52333); assay: Enzyme activity inhibition, Caliper Mobility Shift Assay; format: biochemical; settings: read-out: Kinase inhibitory activity (IC50, nM) JAK3
T2 sequence (P52333 1-1124): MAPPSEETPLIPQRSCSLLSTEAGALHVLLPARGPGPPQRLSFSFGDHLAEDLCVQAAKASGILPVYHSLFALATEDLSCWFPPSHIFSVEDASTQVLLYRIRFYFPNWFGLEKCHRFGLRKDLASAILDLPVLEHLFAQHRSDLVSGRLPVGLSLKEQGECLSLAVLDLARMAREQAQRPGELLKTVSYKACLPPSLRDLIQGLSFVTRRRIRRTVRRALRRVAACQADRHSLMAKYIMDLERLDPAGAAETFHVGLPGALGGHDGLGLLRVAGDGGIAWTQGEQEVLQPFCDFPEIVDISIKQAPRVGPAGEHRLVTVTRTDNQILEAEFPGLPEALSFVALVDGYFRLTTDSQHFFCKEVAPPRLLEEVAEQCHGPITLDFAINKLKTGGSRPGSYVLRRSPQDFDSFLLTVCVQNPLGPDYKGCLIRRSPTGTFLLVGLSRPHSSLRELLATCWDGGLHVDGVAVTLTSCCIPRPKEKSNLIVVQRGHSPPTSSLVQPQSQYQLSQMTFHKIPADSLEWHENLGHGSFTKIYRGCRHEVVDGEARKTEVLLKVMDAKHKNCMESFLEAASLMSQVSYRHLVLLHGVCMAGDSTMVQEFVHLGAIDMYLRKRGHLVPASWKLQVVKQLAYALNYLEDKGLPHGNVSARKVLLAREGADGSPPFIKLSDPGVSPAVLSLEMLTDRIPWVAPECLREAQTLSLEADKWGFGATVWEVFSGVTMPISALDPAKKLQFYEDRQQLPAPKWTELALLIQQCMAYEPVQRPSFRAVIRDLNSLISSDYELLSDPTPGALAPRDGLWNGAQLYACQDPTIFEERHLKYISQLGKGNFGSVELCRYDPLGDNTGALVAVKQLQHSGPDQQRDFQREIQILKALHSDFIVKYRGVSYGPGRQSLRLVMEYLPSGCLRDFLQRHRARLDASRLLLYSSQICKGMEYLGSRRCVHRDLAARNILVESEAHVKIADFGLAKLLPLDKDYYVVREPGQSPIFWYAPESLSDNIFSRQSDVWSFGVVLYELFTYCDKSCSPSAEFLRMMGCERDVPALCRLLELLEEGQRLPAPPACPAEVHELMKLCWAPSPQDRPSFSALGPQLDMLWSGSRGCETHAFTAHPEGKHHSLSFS
Experimental: (§1) The semi-inhibitory concentration IC50 of the compounds (the concentration of the compounds required to inhibit enzyme activity to 50%) is determined by the immobilized enzyme mixed with a specific substrate and different concentrations of the test compounds. The determination method used was a Caliper Mobility Shift Assay. The kinases determined were JAK1, JAK2, JAK3 and TYK2. The standard reference compound used was staurosporine.

JAK2 = JAK2 (Homo sapiens, UniProt O60674); assay: as above; format: biochemical; settings: for IC50: read-out: Kinase inhibitory activity (IC50, nM) JAK2
Experimental: as §1

TYK2 = TYK2 (Homo sapiens, UniProt P29597); assay: as above; format: biochemical; settings: read-out: Kinase inhibitory activity (IC50, nM) TYK2
Experimental: as §1

JAK1 = JAK1 (Homo sapiens, UniProt P23458); assay: as above; format: biochemical; settings: read-out: Kinase inhibitory activity (IC50, nM) JAK1
Experimental: as §1

[4] = both sexes, beagle, dog, plasma, intravenous injection, 5 mg/kg
[5] = both sexes, beagle, dog, plasma, oral, 10 mg/kg

Sequence of JAK2 (O60674 whole entry): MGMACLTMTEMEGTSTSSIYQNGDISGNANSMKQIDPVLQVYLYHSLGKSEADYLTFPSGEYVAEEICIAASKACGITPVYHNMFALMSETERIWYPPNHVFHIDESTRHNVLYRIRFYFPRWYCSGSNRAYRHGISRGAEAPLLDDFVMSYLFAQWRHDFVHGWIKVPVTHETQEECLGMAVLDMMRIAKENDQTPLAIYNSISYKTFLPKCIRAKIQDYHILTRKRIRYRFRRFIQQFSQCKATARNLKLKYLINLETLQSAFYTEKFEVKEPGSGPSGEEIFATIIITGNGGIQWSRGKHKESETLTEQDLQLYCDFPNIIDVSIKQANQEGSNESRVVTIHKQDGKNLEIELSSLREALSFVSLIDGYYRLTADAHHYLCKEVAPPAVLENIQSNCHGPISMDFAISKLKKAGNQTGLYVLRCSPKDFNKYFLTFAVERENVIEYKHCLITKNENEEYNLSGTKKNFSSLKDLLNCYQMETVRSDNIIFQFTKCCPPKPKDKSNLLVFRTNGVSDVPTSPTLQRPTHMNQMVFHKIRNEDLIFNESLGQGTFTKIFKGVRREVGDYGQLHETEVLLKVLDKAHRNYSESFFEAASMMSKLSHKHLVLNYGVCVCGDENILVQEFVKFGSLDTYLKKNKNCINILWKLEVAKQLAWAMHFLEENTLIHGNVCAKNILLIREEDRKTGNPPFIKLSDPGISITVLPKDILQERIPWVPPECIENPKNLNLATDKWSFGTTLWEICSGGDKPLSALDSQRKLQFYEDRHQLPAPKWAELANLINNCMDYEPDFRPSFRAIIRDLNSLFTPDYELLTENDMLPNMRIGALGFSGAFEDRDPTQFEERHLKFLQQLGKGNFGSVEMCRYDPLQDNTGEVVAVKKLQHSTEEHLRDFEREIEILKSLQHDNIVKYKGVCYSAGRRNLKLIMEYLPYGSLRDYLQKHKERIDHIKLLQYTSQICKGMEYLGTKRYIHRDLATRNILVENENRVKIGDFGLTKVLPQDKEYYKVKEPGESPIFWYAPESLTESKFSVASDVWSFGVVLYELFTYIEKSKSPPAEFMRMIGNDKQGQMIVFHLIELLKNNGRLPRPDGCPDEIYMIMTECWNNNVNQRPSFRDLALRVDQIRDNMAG
T1 sequence (Q12809 whole entry): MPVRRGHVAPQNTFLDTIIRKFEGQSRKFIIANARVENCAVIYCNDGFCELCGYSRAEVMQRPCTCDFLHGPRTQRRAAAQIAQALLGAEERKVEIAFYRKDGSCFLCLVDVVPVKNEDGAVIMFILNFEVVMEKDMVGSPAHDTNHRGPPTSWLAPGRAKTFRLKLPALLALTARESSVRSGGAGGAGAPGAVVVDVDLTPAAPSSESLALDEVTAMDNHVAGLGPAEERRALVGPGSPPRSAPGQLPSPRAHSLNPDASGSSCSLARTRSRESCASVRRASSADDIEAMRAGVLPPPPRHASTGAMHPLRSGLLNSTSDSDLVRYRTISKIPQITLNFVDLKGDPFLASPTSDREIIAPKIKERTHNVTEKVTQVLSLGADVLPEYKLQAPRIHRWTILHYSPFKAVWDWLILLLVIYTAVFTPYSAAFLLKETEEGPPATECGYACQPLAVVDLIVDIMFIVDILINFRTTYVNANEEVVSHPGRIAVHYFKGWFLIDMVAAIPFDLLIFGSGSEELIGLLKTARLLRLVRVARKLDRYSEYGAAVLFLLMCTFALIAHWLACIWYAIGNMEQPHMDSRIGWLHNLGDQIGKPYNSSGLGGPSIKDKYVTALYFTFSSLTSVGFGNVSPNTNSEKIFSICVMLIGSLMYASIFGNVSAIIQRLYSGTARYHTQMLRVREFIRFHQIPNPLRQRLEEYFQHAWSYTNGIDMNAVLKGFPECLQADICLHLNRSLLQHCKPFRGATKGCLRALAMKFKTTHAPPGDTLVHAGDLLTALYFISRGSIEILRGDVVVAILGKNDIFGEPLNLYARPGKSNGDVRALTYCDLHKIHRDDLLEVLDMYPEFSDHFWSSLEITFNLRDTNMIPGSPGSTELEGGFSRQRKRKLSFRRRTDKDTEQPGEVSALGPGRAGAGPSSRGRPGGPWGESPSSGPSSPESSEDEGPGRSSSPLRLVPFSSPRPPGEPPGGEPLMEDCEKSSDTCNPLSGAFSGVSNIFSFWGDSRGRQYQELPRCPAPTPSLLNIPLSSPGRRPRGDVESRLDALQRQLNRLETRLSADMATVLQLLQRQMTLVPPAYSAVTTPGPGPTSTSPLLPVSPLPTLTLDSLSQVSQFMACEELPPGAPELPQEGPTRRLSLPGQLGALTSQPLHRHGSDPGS
Sequence of JAK1 (P23458 whole entry): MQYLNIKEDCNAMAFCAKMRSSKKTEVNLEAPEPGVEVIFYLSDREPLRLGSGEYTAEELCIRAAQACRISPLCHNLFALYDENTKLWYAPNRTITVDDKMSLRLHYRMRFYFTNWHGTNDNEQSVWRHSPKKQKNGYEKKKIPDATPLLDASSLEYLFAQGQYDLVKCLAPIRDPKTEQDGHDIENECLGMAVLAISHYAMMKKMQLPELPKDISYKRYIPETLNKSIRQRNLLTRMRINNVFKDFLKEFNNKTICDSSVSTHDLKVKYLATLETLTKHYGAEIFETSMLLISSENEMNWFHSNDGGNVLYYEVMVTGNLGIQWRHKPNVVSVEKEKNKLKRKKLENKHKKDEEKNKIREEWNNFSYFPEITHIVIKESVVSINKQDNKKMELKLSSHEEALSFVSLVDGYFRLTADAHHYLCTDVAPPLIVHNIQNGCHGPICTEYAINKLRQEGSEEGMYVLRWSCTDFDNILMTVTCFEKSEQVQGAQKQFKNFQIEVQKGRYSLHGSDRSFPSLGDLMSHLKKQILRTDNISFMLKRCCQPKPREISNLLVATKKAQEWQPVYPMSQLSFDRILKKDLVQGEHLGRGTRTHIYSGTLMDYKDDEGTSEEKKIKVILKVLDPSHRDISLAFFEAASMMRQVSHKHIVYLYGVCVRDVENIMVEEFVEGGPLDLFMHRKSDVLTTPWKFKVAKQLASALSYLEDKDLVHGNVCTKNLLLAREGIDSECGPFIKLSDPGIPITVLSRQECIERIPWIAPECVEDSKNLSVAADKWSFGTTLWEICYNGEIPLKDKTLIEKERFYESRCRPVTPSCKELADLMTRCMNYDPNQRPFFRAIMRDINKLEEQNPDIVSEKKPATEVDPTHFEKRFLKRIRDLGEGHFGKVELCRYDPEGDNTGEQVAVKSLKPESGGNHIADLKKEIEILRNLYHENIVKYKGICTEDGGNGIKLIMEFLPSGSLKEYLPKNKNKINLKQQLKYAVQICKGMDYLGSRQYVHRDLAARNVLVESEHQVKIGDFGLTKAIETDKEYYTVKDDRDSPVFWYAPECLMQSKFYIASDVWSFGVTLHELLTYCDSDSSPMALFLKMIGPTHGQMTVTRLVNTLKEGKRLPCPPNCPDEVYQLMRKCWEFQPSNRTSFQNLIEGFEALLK
Sequence of TYK2 (P29597 whole entry): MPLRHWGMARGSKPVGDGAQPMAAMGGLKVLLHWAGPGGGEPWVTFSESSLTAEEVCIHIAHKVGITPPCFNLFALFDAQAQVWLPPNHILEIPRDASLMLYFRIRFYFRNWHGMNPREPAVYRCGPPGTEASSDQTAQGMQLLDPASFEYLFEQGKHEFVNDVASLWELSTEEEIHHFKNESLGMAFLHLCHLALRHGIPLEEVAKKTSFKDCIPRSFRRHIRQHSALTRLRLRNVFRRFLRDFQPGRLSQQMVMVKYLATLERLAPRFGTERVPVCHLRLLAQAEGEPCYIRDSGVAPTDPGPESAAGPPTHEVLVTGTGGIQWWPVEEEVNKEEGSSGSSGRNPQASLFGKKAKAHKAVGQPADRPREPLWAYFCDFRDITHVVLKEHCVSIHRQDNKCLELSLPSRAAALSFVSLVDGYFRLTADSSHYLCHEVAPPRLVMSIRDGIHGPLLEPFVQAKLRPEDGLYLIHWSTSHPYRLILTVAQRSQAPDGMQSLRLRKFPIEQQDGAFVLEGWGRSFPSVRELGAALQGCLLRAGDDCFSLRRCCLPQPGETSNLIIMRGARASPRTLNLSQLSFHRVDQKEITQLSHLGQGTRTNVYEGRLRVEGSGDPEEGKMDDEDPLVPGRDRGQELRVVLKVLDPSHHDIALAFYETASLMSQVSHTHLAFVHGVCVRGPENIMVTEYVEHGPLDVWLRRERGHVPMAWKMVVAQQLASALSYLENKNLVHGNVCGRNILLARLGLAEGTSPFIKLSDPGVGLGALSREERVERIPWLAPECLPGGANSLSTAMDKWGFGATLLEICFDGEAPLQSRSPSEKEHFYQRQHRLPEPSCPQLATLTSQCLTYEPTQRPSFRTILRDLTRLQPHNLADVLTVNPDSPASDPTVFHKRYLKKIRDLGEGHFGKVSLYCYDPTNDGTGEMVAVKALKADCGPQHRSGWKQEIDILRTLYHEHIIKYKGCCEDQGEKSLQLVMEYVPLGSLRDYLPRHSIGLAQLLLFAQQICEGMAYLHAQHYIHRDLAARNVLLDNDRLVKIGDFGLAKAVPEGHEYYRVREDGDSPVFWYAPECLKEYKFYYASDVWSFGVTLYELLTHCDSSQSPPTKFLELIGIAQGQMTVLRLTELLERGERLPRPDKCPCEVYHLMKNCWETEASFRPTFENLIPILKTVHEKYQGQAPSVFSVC

Row | Compound | toxic side effects ([2]; 30 mg/kg/day) | organ tissues, blood biochemical parameters versus vehicle control group ([2]; rats) | IC50 (hERG) | animal clinical scores [3] | paw volumes [3] | animal body weight increase versus vehicle group [3] | inhibitory effects on JAK2 kinase (JAK2) | IC50 (JAK2) | also measured
1 | CCS(=O)(=O)N1CCC(CC#N)(n2cc(-c3ncnc4[nH]ccc34)cn2)CC1 [Compound of formula Ia] | no obvious toxic side effects | no significant difference | > 30000 nM | almost close to the normal group | almost close to the normal group | greater increases in animal body weight than that of the vehicle group | very strong inhibitory effects | 0.2 nM | AUC(0-t) [1, 4]: 10900 ng·h/mL; MRT inf [1, 4]: 4.16 h; clearance [1, 4]: 7.5 mL/min/kg; half-life [1, 4]: 4.78 h; Vd ([1]; both sexes, beagle, dog, plasma, intravenous injection, 5 mg/kg, read-out: Vss): 1.85 L/kg; AUC(0-t) [1, 5]: 10600 ng·h/mL; Cmax [1, 5]: 2500 ng/mL; Tmax [1, 5]: 0.25 h; half-life [1, 5]: 5.79 h; F ([1]; oral, 10 mg/kg): 49.4%; IC50 (JAK3): 27 nM; IC50 (TYK2): 7.3 nM
2 | CCS(=O)(=O)N1CCC(CC#N)(n2ccc(-c3ncnc4[nH]ccc34)c2)CC1 [Compound of formula Ib] | no obvious toxic side effects | no significant difference | > 30000 nM | almost close to the normal group | almost close to the normal group | greater increases in animal body weight than that of the vehicle group | very strong inhibitory effects | 0.4 nM | selective inhibitory activities (JAK2; JAK2 versus the other kinases tested): good selective inhibitory activities; IC50 (JAK1): 31 nM
3 | CCS(=O)(=O)N1CC(CC#N)(n2cc(-c3ncnc4[nH]ccc34)cn2)C1 [Baricitinib, reference compound] | certain toxic side effects |  |  |  |  |  |  |  | thymus and spleen tissues size ([2]; rats, 30 mg/kg/day, same experiment): significantly reduced (a quarter of the normal size)
